Data set [1] deals with Rattus norvegicus. Put plainly: Anxiolytic activity in po dosed rat assessed as protection against pentylenetetrazole-induced seizures administered in 2% starch. Format: functional.
For data set [2], the species on record is Rattus norvegicus. The data set is described as follows: Drug metabolism in rat treated with 10-methyl-2,3-dihydro-1H-benzo[e]pyrrolo[1,2-a][1,4]diazepine-5,11(10H,11aH)-dione. The note with it: in vivo. Format: ADME, organism-based.
Data set [3] is filed under the species Rattus norvegicus. The data set is described as follows: Toxicity in rat assessed as depression. Format: organism-based. The note with it: in vivo.
The species named for data set [4] is Rattus norvegicus. The data set is described as follows: Drug metabolism in rat assessed as 2,3-dihydro-1H-benzo[e]pyrrolo[1,2-a][1,4]diazepine-5,11(10H,11aH)-dione formation. Format: ADME, organism-based. The note with it: in vivo.
Data set [5] is filed under the species Rattus norvegicus. The data set is described as follows: Drug metabolism in rat assessed as aliphatic hydroxylated product formation. Format: ADME, organism-based. The conditions noted are these: in vivo.
Data set [6] is filed under the species Rattus norvegicus. The data set is described as follows: Drug metabolism in rat assessed as monohydroxylated product formation. Format: ADME, organism-based. The conditions noted are these: in vivo.
Data set [7] is filed under the species Rattus norvegicus. The data set is described as follows: Drug metabolism in rat assessed as dihydroxylated product formation. Format: ADME, organism-based. The conditions noted are these: in vivo.
Data set [8] is filed under the species Rattus norvegicus. The data set is described as follows: Drug metabolism in rat assessed as 3,11a-dihydroxy-10-methyl-2,3-dihydro-1H-benzo[e]pyrrolo[1,2-a][1,4]diazepine-5,11(10H,11aH)-dione formation by GC-MS/NMR analysis. Format: ADME, organism-based. The conditions noted are these: in vivo.
The species named for the next data set is Mus musculus. Put plainly: Anxiolytic activity in mouse assessed as suppression of pentylenetetrazole-induced convulsion. Format: functional, organism-based.
The species named for another data set is Canis familiaris. The data set is described as follows: Anxiolytic activity in dog assessed as suppression of pentylenetetrazole-induced convulsion. The conditions noted are these: Canis lupus familiaris. Format: functional, organism-based.
The species named for data set [9] is Rattus norvegicus. Put plainly: Anxiolytic activity in thirsty rat by increased conflict responding test. Format: functional, organism-based.
Another data set concerns Squirrel monkey. Put plainly: Anxiolytic activity in squirrel monkey by conflict responding test. Format: functional, organism-based. The note with it: Saimiri sciureus.
The species entered for another data set is Homo sapiens. Put plainly: Anxiolytic activity in human. Format: functional, organism-based.
Where [10] appears, read: Rattus norvegicus, po, read-out: ED50.

Activity calls are given as the source filed them. The calls are words filed in the database; no cut-off is given here. Where only a bound is given, the exact number is not on record here.

Consider `O=C1Nc2ccc(F)cc2C(=O)N2CCCC12` (configuration not stated), for which the ED50 with Rattus norvegicus [1] (setting [10]) was 23 mg/kg.
Consider `CN1C(=O)C2(O)CCC(O)N2C(=O)c2ccccc21` (configuration not stated), for which, in the data set filed under Rattus norvegicus [2], the Drug metabolism entry was “metabolite_detected”.
Take `CN1C(=O)C2CCCN2C(=O)c2cc(F)ccc21` (single isomer, unassigned; (+)): in the data set with Rattus norvegicus [1] (setting [10]), the ED50 was determined as 3.9 mg/kg.
As for `CN1C(=O)C2CCCN2C(=O)c2ccccc21` (single isomer, unassigned; (+)) [listing 1 of 2 here], the ED50 with Rattus norvegicus [1] was 9.9 mg/kg. In addition, the Activity result in the data set filed under Rattus norvegicus [3] is recorded as “Non-toxic”. For the same compound, the Drug metabolism entry in the data set listed under Rattus norvegicus [4], in the data set listed under Rattus norvegicus [5], in the data set filed under Rattus norvegicus [6], in the data set filed under Rattus norvegicus [7] and in the data set listed under Rattus norvegicus [8] was “metabolite_detected” in each case.
On to `O=C1Nc2ccccc2C(=O)N2CCCC12` (single isomer, unassigned; (+)), for which, in the data set on Rattus norvegicus [1] (setting [10]), the ED50 came to 35 mg/kg.
Turning to `CN1C(=O)C2CCCN2C(=O)c2ccccc21` (single isomer, unassigned; (+)) [listing 2 of 2 here], the outcome in the data set filed under Mus musculus, in the data set filed under Canis familiaris, in the data set listed under Rattus norvegicus [9] and with Squirrel monkey was Active. Besides, the result in the data set listed under Homo sapiens was inactive.
With `CN1C(=O)C2CCCN2C(=O)c2ccccc21` (single isomer, unassigned; (-)), the ED50 with Rattus norvegicus [1] is above 200 mg/kg.
Turning to `CN1C(=O)C2CCCN2C(=O)c2ccccc21` (stereo in doubt; 2), the ED50 in the data set on Rattus norvegicus [1] is 20.2 mg/kg.
As to `CNC1=Nc2ccc(Cl)cc2C(c2ccccc2)=[N+]([O-])C1` [CHLORDIAZEPOXIDE], the ED50 with Rattus norvegicus [1] (setting [10]) was 2.5 mg/kg. Moreover, the Activity result in the data set listed under Rattus norvegicus [3] is given as “Toxic”.
In the case of `CN1C(=O)CN=C(c2ccccc2)c2cc(Cl)ccc21` [DIAZEPAM], the Activity entry in the data set filed under Rattus norvegicus [3] was “Toxic”.
In the case of `CCCC(C)(COC(N)=O)COC(N)=O` [MEPROBAMATE], the ED50 in the data set with Rattus norvegicus [1] (setting [10]) amounted to 21.5 mg/kg.

The values above are taken from ChEMBL document CHEMBL3244263, “Derivatives of 1,2,3,11a-tetrahydro-5H-pyrrolo[2,1-c][1,4]benzodiazepine-5,11(10H)-dione as anxiolytic agents” (J Med Chem, 1978).
